According to US7709507B2 (Allergan, Inc., priority 2006, dated 2010):
Where two headings read alike, the source gives them in different places.

Assays:
Format in all cases: cell-based
alpha2A receptor = biological target: T1, alpha2A receptor (Homo sapiens, UniProt P08913); assay: Receptor Selection and Amplification Technology (RSAT) assay, Alpha 2A; conditions: for Alpha 2A IA (intrinsic activity): ratio of maximal effect to that of standard full agonist brimonidine (UK14304)
T1 construct: expressed in transfected cells; host or cells: NIH-3T3 cells
T1 sequence (P08913 1-465): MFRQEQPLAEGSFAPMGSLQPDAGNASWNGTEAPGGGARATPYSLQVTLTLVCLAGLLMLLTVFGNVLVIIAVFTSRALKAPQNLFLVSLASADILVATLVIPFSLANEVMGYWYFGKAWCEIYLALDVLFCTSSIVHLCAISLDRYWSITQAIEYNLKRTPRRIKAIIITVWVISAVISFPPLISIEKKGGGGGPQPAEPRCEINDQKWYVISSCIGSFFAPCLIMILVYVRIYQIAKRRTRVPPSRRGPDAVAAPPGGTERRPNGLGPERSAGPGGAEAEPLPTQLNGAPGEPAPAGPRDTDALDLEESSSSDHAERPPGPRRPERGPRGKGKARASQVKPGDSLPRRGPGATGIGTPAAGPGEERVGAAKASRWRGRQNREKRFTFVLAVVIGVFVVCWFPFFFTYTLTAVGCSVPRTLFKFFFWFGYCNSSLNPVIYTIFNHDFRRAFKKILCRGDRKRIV
Method: (§1) Receptor Selection and Amplification Technology (RSAT) Assay
(§2) The RSAT assay measures a receptor-mediated loss of contact inhibition that results in selective proliferation of receptor-containing cells in a mixed population of confluent cells. The increase in cell number is assessed with an appropriate transfected marker gene such as β-galactosidase, the activity of which can be easily measured in a 96-well format. Receptors that activate the G protein, Gq, elicit this response. Alpha2 receptors, which normally couple to Gi, activate the RSAT response when coexpressed with a hybrid Gq protein that has a Gi receptor recognition domain, called Gq/i5.
(§3) NIH-3T3 cells are plated at a density of 2×10^6 cells in 15 cm dishes and maintained in Dulbecco's modified Eagle's medium supplemented with 10% calf serum. One day later, cells are cotransfected by calcium phosphate precipitation with mammalian expression plasmids encoding p-SV-β-galactosidase (5-10 μg), receptor (1-2 μg) and G protein (1-2 μg). 40 μg salmon sperm DNA may also be included in the transfection mixture. […] Cells are thawed and 100 μl added to 100 μl aliquots of various concentrations of drugs in triplicate in 96-well dishes. Incubations continue 72-96 hr at 37° C. After washing with phosphate-buffered saline, β-galactosidase enzyme activity is determined by adding 200 μl of the chromogenic substrate (consisting of 3.5 mM o-nitrophenyl-β-D-galactopyranoside and 0.5% nonidet P-40 in phosphate buffered saline), incubating overnight at 30° C. and measuring optical density at 420 nm. The absorbance is a measure of enzyme activity, which depends on cell number and reflects a receptor-mediated cell proliferation. The efficacy or intrinsic activity is calculated as a ratio of the maximal effect of the drug to the maximal effect of a standard full agonist for each receptor subtype. Brimonidine, also called UK14304, the chemical structure of which is shown below, is used as the standard agonist for the alpha2A, alpha2B and alpha2C receptors. The EC50 is the concentration at which the drug effect is half of its maximal effect.
(§4) EC50 values are nanomolar. NA stands for “not active” at concentrations less than 10 micromolar. IA stands for “intrinsic activity.”

alpha2B receptor = biological target: T2, alpha2B receptor (Homo sapiens, UniProt P18089); assay: Receptor Selection and Amplification Technology (RSAT) assay, Alpha 2B; conditions: for EC50: transfected NIH-3T3 cells with Gq/i5, not active = at concentrations less than 10 micromolar; for Alpha 2B IA (intrinsic activity): ratio of maximal effect to that of standard full agonist brimonidine (UK14304)
T2 construct: expressed in transfected cells; host or cells: NIH-3T3 cells
T2 sequence (P18089 1-450): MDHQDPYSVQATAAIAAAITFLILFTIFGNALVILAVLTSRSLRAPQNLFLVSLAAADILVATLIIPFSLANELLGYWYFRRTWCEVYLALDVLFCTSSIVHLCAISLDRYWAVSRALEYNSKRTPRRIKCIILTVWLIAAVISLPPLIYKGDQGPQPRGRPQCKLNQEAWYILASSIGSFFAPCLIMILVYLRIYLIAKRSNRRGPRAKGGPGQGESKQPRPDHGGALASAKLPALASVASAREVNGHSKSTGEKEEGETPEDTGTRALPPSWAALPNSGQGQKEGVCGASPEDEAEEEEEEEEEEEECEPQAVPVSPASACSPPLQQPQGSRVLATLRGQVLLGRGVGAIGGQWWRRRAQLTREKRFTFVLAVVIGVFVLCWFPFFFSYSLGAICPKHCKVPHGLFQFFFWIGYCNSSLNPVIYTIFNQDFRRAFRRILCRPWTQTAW
Method: as §1, §2
NIH-3T3 cells are plated at a density of 2×10^6 cells in 15 cm dishes and maintained in Dulbecco's modified Eagle's medium supplemented with 10% calf serum. One day later, cells are cotransfected by calcium phosphate precipitation with mammalian expression plasmids encoding p-SV-β-galactosidase (5-10 μg), receptor (1-2 μg) and G protein (1-2 μg). 40 μg salmon sperm DNA may also be included in the transfection mixture. Fresh media is added on the following day and 1-2 days later, cells are harvested and frozen in 50 assay aliquots. Cells are thawed and 100 μl added to 100 μl aliquots of various concentrations of drugs in triplicate in 96-well dishes. Incubations continue 72-96 hr at 37° C. After washing with phosphate-buffered saline, β-galactosidase enzyme activity is determined by adding 200 μl of the chromogenic substrate (consisting of 3.5 mM o-nitrophenyl-β-D-galactopyranoside and 0.5% nonidet P-40 in phosphate buffered saline), incubating overnight at 30° C. and measuring optical density at 420 nm. The absorbance is a measure of enzyme activity, which depends on cell number and reflects a receptor-mediated cell proliferation. The efficacy or intrinsic activity is calculated as a ratio of the maximal effect of the drug to the maximal effect of a standard full agonist for each receptor subtype. Brimonidine, also called UK14304, the chemical structure of which is shown below, is used as the standard agonist for the alpha2A, alpha2B and alpha2C receptors. The EC50 is the concentration at which the drug effect is half of its maximal effect.
The results of the RSAT assay with several exemplary compounds of the invention are disclosed in Table 1 above together with the chemical formulas of these exemplary compounds. EC50 values are nanomolar. NA stands for “not active” at concentrations less than 10 micromolar. IA stands for “intrinsic activity.”

alpha2C receptor = biological target: T3, alpha2C receptor (Homo sapiens, UniProt P18825); assay: Receptor Selection and Amplification Technology (RSAT) assay, Alpha 2C; conditions: for Alpha 2C IA (intrinsic activity): ratio of maximal effect to that of standard full agonist brimonidine (UK14304)
T3 construct: expressed in transfected cells; host or cells: NIH-3T3 cells
T3 sequence (P18825 1-462): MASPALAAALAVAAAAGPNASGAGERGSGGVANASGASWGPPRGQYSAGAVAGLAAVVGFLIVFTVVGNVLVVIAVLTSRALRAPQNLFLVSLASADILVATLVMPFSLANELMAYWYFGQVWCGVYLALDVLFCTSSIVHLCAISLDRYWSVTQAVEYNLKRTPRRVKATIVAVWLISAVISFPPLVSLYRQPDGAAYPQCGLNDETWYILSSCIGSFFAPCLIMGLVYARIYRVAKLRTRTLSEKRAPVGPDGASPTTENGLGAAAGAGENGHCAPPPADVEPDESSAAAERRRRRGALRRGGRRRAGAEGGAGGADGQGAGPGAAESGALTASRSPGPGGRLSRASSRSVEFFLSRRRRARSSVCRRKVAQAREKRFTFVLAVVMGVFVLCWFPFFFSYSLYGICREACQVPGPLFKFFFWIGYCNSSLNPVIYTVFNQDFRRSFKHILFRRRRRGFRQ
Method: as §1, §2, §3, §4

[1] = RSAT, transfected NIH-3T3 cells with Gq/i5, not active = at concentrations less than 10 micromolar
[2] = RSAT, transfected NIH-3T3 cells with Gq/i5, not active = at concentrations less than 10 micromolar, read-out: Alpha 2C EC50

Row | Alpha 2A EC50 (alpha2A receptor; [1]) | EC50 (alpha2B receptor; RSAT, read-out: Alpha 2B EC50) [nM] | Alpha 2B IA (intrinsic activity) (alpha2B receptor) | Alpha 2C EC50 (alpha2C receptor; [1]) | Compound | EC50 (alpha2A receptor; RSAT, transfected NIH-3T3 cells with Gq/i5, not active = at concentrations less than 10 micromolar, read-out: Alpha 2A EC50) [nM] | Alpha 2A IA (intrinsic activity) (alpha2A receptor) | EC50 (alpha2C receptor; [2]) [nM] | Alpha 2C IA (intrinsic activity) (alpha2C receptor) | EC50 (alpha2B receptor; Alpha 2B EC50, RSAT) [nM] | EC50 (alpha2C receptor) [nM] | EC50 (alpha2A receptor) [nM]
1 | not active | 606 | 0.63 | not active | O=C(NCCF)NC(Cc1ccccc1Cl)c1ccccc1 (stereo not drawn) |  |  |  |  |  |  | 
2 | not active | 177 | 0.55 | not active | O=C(NCCF)NC(Cc1ccccc1)c1ccc(Cl)cc1 (stereo not drawn) |  |  |  |  |  |  | 
3 | not active | 26.8 | 0.94 |  | Cc1ccccc1CC(NC(=O)NCCF)c1cccc(Cl)c1 (stereo not drawn) |  |  | 787 | 0.38 |  |  | 
4 | not active | 13.8 | 1.02 | not active | Cc1cccc(C(Cc2ccccc2F)NC(=O)NCCF)c1 (stereo not drawn) |  |  |  |  |  |  | 
5 | not active | 42.9 | 0.88 | not active | Cc1cccc(C(Cc2ccc(F)cc2)NC(=O)NCCF)c1 (stereo not drawn) |  |  |  |  |  |  | 
6 | not active | 146 | 0.82 | not active | O=C(NCCF)NC(Cc1ccccc1)c1ccc(O)cc1 (stereo not drawn) |  |  |  |  |  |  | 
7 | not active | 640 | 0.33 | not active | O=C(NCCF)NC(Cc1ccccc1)C1CCCCC1 (stereo not drawn) [1-(1-cyclohexyl-2-phenylethyl)-3-(2-fluoroethyl)urea] |  |  |  |  |  |  | 
8 | not active | 378 | 0.6 | not active | O=C(NCCF)NC(Cc1ccccc1)C1CCCC1 (stereo not drawn) [1-(1-cyclopentyl-2-phenylethyl)-3-(2-fluoroethyl)urea] |  |  |  |  |  |  | 
9 | not active | 63.4 | 1.0 | not active | Cc1cccc(C(Cc2ccsc2)NC(=O)NCCF)c1 (stereo not drawn) [1-(2-Fluoro-ethyl)-3-(2-thiophen-3-yl-1-m-tolyl-ethyl)-urea] |  |  |  |  |  |  | 
10 | not active | 513 | 0.77 | not active | O=C(NCCF)NC(Cc1ccccc1)c1ccco1 (stereo not drawn) [1-(2-fluoro-ethyl)-3-(1-furan-2-yl-2-phenyl-ethyl)-urea] |  |  |  |  |  |  | 
11 | not active | 135 | 0.87 | not active | Cc1cccc(C(Cc2ccccn2)NC(=O)NCCF)c1 (stereo not drawn) [1-(2-fluoro-ethyl)-3-(2-pyridin-2-yl-1-m-tolyl-ethyl)-urea] |  |  |  |  |  |  | 
12 | not active | 53.2 | 0.95 | not active | Cc1cccc(C(Cc2cccnc2)NC(=O)NCCF)c1 (stereo not drawn) [1-(2-fluoro-ethyl)-3-(2-pyridin-3-yl-1-m-tolyl-ethyl)-urea] |  |  |  |  |  |  | 
13 | not active | 37 | 1.08 | not active | Cc1cccc(C(Cc2cccs2)NC(=O)NCCF)c1 (stereo not drawn) [1-(2-fluoro-ethyl)-3-(2-thiophen-2-yl-1-m-tolyl-ethyl)-urea] |  |  |  |  |  |  | 
14 | not active | 747 | 0.78 | not active | O=C(NCCF)NC(Cc1ccccc1F)c1cccnc1 (stereo not drawn) [1-(2-fluoro-ethyl)-3-[2-(2-fluoro-phenyl)-1-pyridin-3-yl-ethyl]-urea] |  |  |  |  |  |  | 
15 | not active | 2120 | 0.53 | not active | O=C(NCCF)NC(Cc1ccccc1F)c1ccncc1 (stereo not drawn) [1-(2-fluoro-ethyl)-3-[2-(2-fluoro-phenyl)-1-pyridin-4-yl-ethyl]-urea] |  |  |  |  |  |  | 

Row | Compound | Alpha 2A EC50 (alpha2A receptor; [1]) | EC50 (alpha2B receptor; RSAT, read-out: Alpha 2B EC50) [nM] | Alpha 2B IA (intrinsic activity) (alpha2B receptor) | Alpha 2C EC50 (alpha2C receptor; [1]) | EC50 (alpha2A receptor; RSAT, transfected NIH-3T3 cells with Gq/i5, not active = at concentrations less than 10 micromolar, read-out: Alpha 2A EC50) [nM] | Alpha 2A IA (intrinsic activity) (alpha2A receptor) | EC50 (alpha2C receptor; [2]) [nM] | Alpha 2C IA (intrinsic activity) (alpha2C receptor) | EC50 (alpha2B receptor; Alpha 2B EC50, RSAT) [nM] | EC50 (alpha2C receptor) [nM] | EC50 (alpha2A receptor) [nM]
16 | O=C(NCCF)NC(Cc1ccccc1)c1ccccc1F (stereo not drawn) |  | 103 | 0.79 |  | 2140 | 0.35 | 101 | 0.31 |  |  | 
17 | O=C(NCCF)NC(Cc1ccccc1)c1ccc(F)cc1 (stereo not drawn) | not active | 299 | 0.71 | not active |  |  |  |  |  |  | 
18 | O=C(NCCF)NC(Cc1ccccc1)c1ccccc1 (stereo not drawn) [1-(1,2-diphenyl-ethyl)-3-(2-fluoro-ethyl)-urea] | not active |  | 0.96 |  |  |  |  | 0.32 | 33.8 | 345 | 
19 | Cc1cccc(C(Cc2ccncc2)NC(=O)NCCF)c1 (stereo not drawn) [1-(2-fluoro-ethyl)-3-(2-pyridin-4-yl-1-m-tolyl-ethyl)-urea] |  |  | 1.1 | not active |  | 0.44 |  |  | 37.7 |  | 341
